Test results: PMC10382351, “In vivo evaluation of a novel ^18F-labeled PET radioligand for translocator protein 18 kDa (TSPO) in monkey brain” (European Journal of Nuclear Medicine and Molecular Imaging, 2023)

How the values were obtained:
TSPO [1] = target: TSPO; parameters: method as in PMID 25123416, PMID 34756026; details: human brain homogenates; against [^3H]PK11195; cited from earlier work
TSPO [2] = details: cited from earlier work; for BPND of whole brain: monkey brain
[3] = system: 18 kDa translocator protein (TSPO); assay: PET imaging of [^18F]SF51 in rhesus monkey brain with kinetic analysis (2TCM, Logan plot, Lassen plot); format: in vivo; details: radioligand [^18F]SF51
Method: Electrocardiogram, body temperature, heart rate, and respiratory rate measures were monitored throughout the scan.
Brain PET imaging was performed using a microPET Focus 220 camera (Siemens Medical Solution; Knoxville, TN). […] For baseline experiments, 20 mL of a vehicle containing 20% (2-hydroxypropyl)-β-cyclodextrin and two equivalents of HCl were injected intravenously 10 min before radioligand administration. For the blocked experiment, PK11195 was dissolved in vehicle and then injected intravenously (5 mg/kg) 10 min before radioligand injection for all three monkeys. One of the three monkeys underwent an additional blocked scan with 5 mg/kg of PBR28, performed using a MultiScan™ LFER 150 PET/CT (Mediso USA, LLC; Arlington, VA). The interval between baseline and blocked imaging sessions was at least three weeks in order to allow the monkey to recover from arterial blood sampling. Focus 220 PET images were histogrammed into 30 time frames (6 × 30, 3 × 60, 2 × 120, 4 × 300, and 15 × 600 s) and reconstructed using Fourier rebinning plus a two-dimensional filtered back-projection with scatter and attenuation correction. MultiScan LFER PET images were reconstructed with 3D-OSEM with two iterations and nine subsets and were corrected for scatter and attenuation.
PET images were co-registered to a standardized monkey MRI template using PMOD software (PMOD version 4.1, PMOD Technologies Ltd.; Zurich, Switzerland). Thirty-three predefined regions of interest (ROIs) from a monkey brain template were applied to the co-registered PET images to obtain regional time-activity curves (Supplementary Table S2). Brain uptake was expressed as standardized uptake value (SUV), which normalizes for injected radioactivity and body weight. Using the brain time-activity curves and the radiometabolite-corrected arterial input function, the total VT was derived from a two-tissue compartment model (2TCM). Receptor occupancy by PK11195 and nondisplaceable distribution volume (VND/fP) of [^18F]SF51 were determined by an axes-transformed Lassen plot, where the y-axis reports the difference in VT between the baseline and the blocked scans, corrected by the respective fp values, and the x-axis reports the values at baseline (VTbase/fPbase).

Compound: CC[C@@H](C)N(C)C(=O)c1nc(-c2ccccc2Cl)c2ccccc2n1 [ER176]
- Ki ratio between LAB and HAB (TSPO [1]): 1.28
- BPND of whole brain (TSPO [2]): 8.9

Compound: CC[C@@H](C)N([11CH3])C(=O)c1nc(-c2ccccc2Cl)c2ccccc2n1 [[^11C]ER176]
- VT/fP in the whole brain (TSPO [2]; monkey): 186 mL·cm^−3

Compound: CCC(C)N(C)C(=O)c1cc2ccccc2c(-c2ccccc2Cl)n1 (stereo not drawn) [PK11195, reference compound]
- Receptor occupancy (Lassen plot) ([3]; PK11195 5 mg/kg i.v., three rhesus monkeys): 102 ± 3%
- Slope of Lassen plot (= occupancy) ([3]; PK11195 5 mg/kg, mean ± SD, n = 3): 1.02 ± 0.03

Compound: CC[C@@H](C)N([11CH3])C(=O)c1nc(-c2cccc(F)c2)c2ccccc2n1 [[^11C]SF51]
- BPND of whole brain (TSPO [2]): 8.1
